Experimental data published in US5204352A, “Compounds exhibiting anti-parasitic activity and a method for their use” (The United States of America as represented by the …, priority 1987, dated 1993).

Tested on: Trypanosoma rhodesiense
Assay: In vivo trypanocidal activity in infected mice (protocol based on Rane et al.)
Parameters: Activity at dosage, value in parentheses (increase in survival): unit not given here
Settings: for Activity at dosage (C = Cures) / Activity at dosage, value in parentheses (increase in survival): peritoneal (Table 2)
Description: The compounds of the present invention were evaluated biologically in vivo with groups of 5 mice at various dose levels. Unless otherwise indicated, the data are for subcutaneous administration. Dose levels marked with an asterisk are for peritoneal administration in a HEC+T medium. In addition, Table 2 present results of peritoneal administration with substituted quanylhydrazones. The biological evaluation was done according to a standard protocol based on the method described by Rane et al., Amer. J. Trop. Med Hyg. 25:395 (1976). […]

[1] = 6.6* mg/kg, peritoneal in HEC+T medium (Table I)
[2] = 26* mg/kg, peritoneal in HEC+T medium (Table I)
[3] = 53* mg/kg, peritoneal in HEC+T medium (Table I)
[4] = 106* mg/kg, peritoneal in HEC+T medium (Table I)
[5] = 212* mg/kg, peritoneal in HEC+T medium (Table I)
[6] = 13.3* mg/kg, peritoneal in HEC+T medium (Table I)
[7] = 424* mg/kg, peritoneal in HEC+T medium (Table I)

Cc1ccc2n(c1)cc(-c1ccc(C=NNC(=N)N)cc1)[n+]2C [BK13078]
Increase in survival (0.21 mg/kg, subcutaneous): 5.3 days | Trypanocidal activity, cures (0.21 mg/kg, subcutaneous): 2/5 | Increase in survival (0.42 mg/kg, subcutaneous): 7.0 days | Trypanocidal activity, cures (0.42 mg/kg, subcutaneous): 4/5 | Activity at dosage (C = Cures) (0.8 mg/kg): INAC | Trypanocidal activity, cures (0.83 mg/kg, subcutaneous): 10/10 | Increase in survival (1.66 mg/kg, subcutaneous): 11.0 days | Trypanocidal activity, cures (1.66 mg/kg, subcutaneous): 9/10 | Activity at dosage (C = Cures) (1.7 mg/kg): INAC | Activity at dosage, value in parentheses (increase in survival) (3.3 mg/kg): 1.0 | Increase in survival (3.3 mg/kg, subcutaneous): 1.0 days | Trypanocidal activity, cures (3.33 mg/kg, subcutaneous): 5/5 | Trypanocidal activity, cures (6.65 mg/kg, subcutaneous): 5/5 | Activity at dosage, value in parentheses (increase in survival) (6.7 mg/kg): 7.0 | Trypanocidal activity, cures (13.3 mg/kg, subcutaneous): 10/10 | Activity at dosage, value in parentheses (increase in survival) (26 mg/kg): 10.6 | Trypanocidal activity, cures (26.5 mg/kg, subcutaneous): 15/15 | Activity at dosage, value in parentheses (increase in survival) (424 mg/kg): 12.5 | Increase in survival [1]: 7.0 days | Trypanocidal activity, cures [1]: 3/5 | Trypanocidal activity, cures (13* mg/kg, peritoneal in HEC+T medium (Table I)): 10/10 | Trypanocidal activity, cures [2]: 13/15 | Trypanocidal activity, cures [3]: 10/10 | Trypanocidal activity, cures [4]: 10/10 | Trypanocidal activity, cures [5]: 5/5

C[n+]1c(-c2ccc(C=NNC(=N)N)cc2)c(Br)n2ccccc21 [BK51907]
Activity at dosage (C = Cures) (0.8 mg/kg): INAC | Activity at dosage (C = Cures) (1.7 mg/kg): INAC | Activity at dosage, value in parentheses (increase in survival) (3.3 mg/kg): 1.2 | Activity at dosage, value in parentheses (increase in survival) (6.7 mg/kg): 3.8 | Activity at dosage, value in parentheses (increase in survival) (13 mg/kg): 7.0 | Activity at dosage, value in parentheses (increase in survival) (26 mg/kg): 10.0 | Activity at dosage, value in parentheses (increase in survival) (424 mg/kg): 2.0

Cc1ccc2n(c1)cc(-c1ccc(C(=N)N)cc1)[n+]2C [BK46166]
Increase in survival (26.5 mg/kg, subcutaneous): 4.5 days | Trypanocidal activity, cures (26.5 mg/kg, subcutaneous): 2/5 | Increase in survival (53 mg/kg, subcutaneous): 1.6 days | Trypanocidal activity, cures (53 mg/kg, subcutaneous): 2/5 | Increase in survival (106 mg/kg, subcutaneous): 5.2 days | Trypanocidal activity, cures (106 mg/kg, subcutaneous): 2/5

Cc1ccc2n(c1)cc(-c1ccc(C=NNc3nc[nH]n3)cc1)[n+]2C [BK51961]
Activity at dosage (C = Cures) (13 mg/kg): INAC | Activity at dosage (C = Cures) (26 mg/kg): INAC | Activity at dosage (C = Cures) (53 mg/kg): INAC | Activity at dosage, value in parentheses (increase in survival) (106 mg/kg): 5.5 | Activity at dosage, value in parentheses (increase in survival) (212 mg/kg): 6.3 | Activity at dosage, value in parentheses (increase in survival) (424 mg/kg): 6.0

C[n+]1c(-c2ccc(C=NNC3=NCCN3)cc2)cn2ccccc21 [BK50311]
Increase in survival (0.42 mg/kg, subcutaneous): 6.6 days | Trypanocidal activity, cures (0.42 mg/kg, subcutaneous): 2/5 | Activity at dosage (C = Cures) (0.8 mg/kg): INAC | Increase in survival (0.83 mg/kg, subcutaneous): 1.5 days | Trypanocidal activity, cures (0.83 mg/kg, subcutaneous): 8/10 | Increase in survival (1.66 mg/kg, subcutaneous): 22.0 days | Trypanocidal activity, cures (1.66 mg/kg, subcutaneous): 9/10 | Activity at dosage, value in parentheses (increase in survival) (1.7 mg/kg): 1.0 | Activity at dosage, value in parentheses (increase in survival) (3.3 mg/kg): 1.6 | Trypanocidal activity, cures (3.3 mg/kg, subcutaneous): 5/5 | Increase in survival (6.6 mg/kg, subcutaneous): 10.0 days | Trypanocidal activity, cures (6.6 mg/kg, subcutaneous): 3/5 | Activity at dosage, value in parentheses (increase in survival) (6.7 mg/kg): 7.7 | Activity at dosage, value in parentheses (increase in survival) (13 mg/kg): 9.0 | Trypanocidal activity, cures (13.3 mg/kg, subcutaneous): 10/10 | Activity at dosage, value in parentheses (increase in survival) (26 mg/kg): 13.5 | Increase in survival [6]: 9.0 days | Trypanocidal activity, cures [6]: 9/10 | Increase in survival [2]: 13.5 days | Trypanocidal activity, cures [2]: 13/15 | Trypanocidal activity, cures [3]: 5/5 | Trypanocidal activity, cures [4]: 10/10 | Trypanocidal activity, cures [5]: 5/5 | Trypanocidal activity, cures [7]: 0/10

CC(=O)Nc1ccc(-c2cn3c4ccccc4ccc3[n+]2C)cc1 [BJ83244]
Increase in survival (212 mg/kg, subcutaneous): 8.4 days | Trypanocidal activity, cures (212 mg/kg, subcutaneous): 3/5

C[n+]1c(C=Cc2ccc(C=NNC(=N)N)cc2)cn2ccccc21 [BL09462]
Increase in survival (0.1 mg/kg, subcutaneous): 5.2 days | Trypanocidal activity, cures (0.1 mg/kg, subcutaneous): 6/10 | Trypanocidal activity, cures (0.2 mg/kg, subcutaneous): 5/5 | Trypanocidal activity, cures (0.8 mg/kg, subcutaneous): 10/10

CCN(CC)CCNC(=N)c1ccc(-c2cn3ccccc3[n+]2C)cc1 [BK23001]
Increase in survival (13.3 mg/kg, subcutaneous): 6.6 days

C[n+]1c(-c2ccc(C=NNC(=N)N)cc2)cn2ccsc21 [BK21909]
Trypanocidal activity, cures (13.3 mg/kg, subcutaneous): 5/5

C[n+]1c(-c2ccc(C(=N)N)cc2)cn2cc(C(=N)N)ccc21 [BK42748]
Increase in survival (26.5 mg/kg, subcutaneous): 2.3 days | Trypanocidal activity, cures (26.5 mg/kg, subcutaneous): 2/5 | Increase in survival (53 mg/kg, subcutaneous): 3.0 days | Trypanocidal activity, cures (53 mg/kg, subcutaneous): 2/5

CN(C)C(=N)NN=Cc1ccc(-c2c([N+](=O)[O-])n3ccccc3[n+]2C)cc1 [BK50268]
Activity at dosage (C = Cures) (3.3 mg/kg): INAC | Activity at dosage (C = Cures) (6.7 mg/kg): INAC | Activity at dosage, value in parentheses (increase in survival) (13 mg/kg): 4.5 | Activity at dosage, value in parentheses (increase in survival) (26 mg/kg): 5.0 | Activity at dosage, value in parentheses (increase in survival) (53 mg/kg): 9.9 | Activity at dosage, value in parentheses (increase in survival) (106 mg/kg): 12.5

CN(C)C(=N)NN=Cc1ccc(-c2cn3ccccc3[n+]2C)cc1 [BK47976]
Trypanocidal activity, cures (6.66 mg/kg, subcutaneous): 5/5

C=CC[n+]1c(-c2ccc(N(CC)C(C)=O)cc2)cn2ccccc21 [BK02566]
Increase in survival [4]: 2.8 days | Trypanocidal activity, cures [4]: 1/10 | Increase in survival [5]: 4.7 days | Trypanocidal activity, cures [5]: 1/5 | Increase in survival [7]: 9.9 days | Trypanocidal activity, cures [7]: 5/10

C[n+]1c(-c2ccc(C=CC=NNC3=NCCCN3)cc2)cn2ccccc21 [BL07824]
Trypanocidal activity, cures (3.3 mg/kg, subcutaneous): 5/5 | Trypanocidal activity, cures (6.6 mg/kg, subcutaneous): 5/5 | Trypanocidal activity, cures (13 mg/kg, subcutaneous): 5/5

C[n+]1c(-c2ccc(C(=N)N)cc2)c([N+](=O)[O-])n2ccccc21 [BK42757]
Increase in survival (53 mg/kg, subcutaneous): 2.5 days | Trypanocidal activity, cures (53 mg/kg, subcutaneous): 1/5 | Increase in survival (106 mg/kg, subcutaneous): 3.0 days | Trypanocidal activity, cures (106 mg/kg, subcutaneous): 1/5

C[n+]1c(-c2ccc(C=NNC3=NCCN3)cc2)cn2ccsc21 [BK62620]
Increase in survival (13.3 mg/kg, subcutaneous): 28.0 days | Trypanocidal activity, cures (13.3 mg/kg, subcutaneous): 9/10

C=CC[n+]1c(-c2ccc(C=NNc3ncn[nH]3)cc2)cn2ccccc21 [BK24017]
Increase in survival (26 mg/kg, subcutaneous): 2.3 days | Trypanocidal activity, cures (26 mg/kg, subcutaneous): 4/10 | Increase in survival (53 mg/kg, subcutaneous): 4.6 days

CC(=O)Nc1ccc(-c2cn3c([n+]2C)CCCC3)cc1 [BJ51911]
Increase in survival (26.5 mg/kg, subcutaneous): 1.2 days | Trypanocidal activity, cures (26.5 mg/kg, subcutaneous): 1/10 | Increase in survival (53 mg/kg, subcutaneous): 6.4 days | Increase in survival (106 mg/kg, subcutaneous): 7.4 days | Trypanocidal activity, cures (106 mg/kg, subcutaneous): 3/10

C[n+]1c(-c2ccc(C=NNC(=N)N)cc2)cn2ccccc21 [BJ90749]
Increase in survival (0.21 mg/kg, subcutaneous): 2.5 days | Trypanocidal activity, cures (0.21 mg/kg, subcutaneous): 1/5 | Increase in survival (0.42 mg/kg, subcutaneous): 5.4 days | Trypanocidal activity, cures (0.42 mg/kg, subcutaneous): 2/10 | Increase in survival (0.83 mg/kg, subcutaneous): 6.2 days | Trypanocidal activity, cures (0.83 mg/kg, subcutaneous): 8/10 | Trypanocidal activity, cures (1.6 mg/kg, subcutaneous): 10/10 | Trypanocidal activity, cures (3.3 mg/kg, subcutaneous): 5/5 | Trypanocidal activity, cures (6.6 mg/kg, subcutaneous): 5/5 | Activity at dosage, value in parentheses (increase in survival) (13 mg/kg): 4.0 | Trypanocidal activity, cures (13.3 mg/kg, subcutaneous): 10/10

C[n+]1c(-c2ccc(C(N)=NO)cc2)cn2ccccc21 [BJ84974]
Increase in survival (13.3 mg/kg, subcutaneous): 3.1 days | Increase in survival (26.5 mg/kg, subcutaneous): 1.6 days | Trypanocidal activity, cures (26.5 mg/kg, subcutaneous): 2/10 | Trypanocidal activity, cures (53 mg/kg, subcutaneous): 5/5 | Increase in survival (106 mg/kg, subcutaneous): 9.9 days | Trypanocidal activity, cures (106 mg/kg, subcutaneous): 9/10 | Trypanocidal activity, cures (212 mg/kg, subcutaneous): 5/5

C[n+]1c(-c2ccc(C=NNC(=N)N)cc2)cn2cc(Cl)ccc21 [BK13069]
Trypanocidal activity, cures (6.65 mg/kg, subcutaneous): 5/5

COC(=O)c1ccc2n(c1)cc(-c1ccc(NC(C)=O)cc1)[n+]2C [BJ90758]
Increase in survival (106 mg/kg, subcutaneous): 4.2 days | Increase in survival (424 mg/kg, subcutaneous): 4.2 days | Trypanocidal activity, cures (424 mg/kg, subcutaneous): 2/10

Cc1ccn2cc(-c3ccc(C=NNC(=N)N)cc3)[n+](C)c2c1 [BK46219]
Increase in survival (26.5 mg/kg, subcutaneous): 10.0 days | Trypanocidal activity, cures (26.5 mg/kg, subcutaneous): 8/10
